# Results: patent publication US3985779A, “M-phenoxyphenyl propionic acid derivatives and preparation thereof” (Eisai Co., Ltd., priority 1973, dated 1976)
# Columns and labels:
# [1] = in vivo; details: mouse, po
# Protocol: Comparison of toxicity of the phenyl propionic acid derivatives of the present invention and that of the other known anti-inflammatory agents was carried out in mice.
# [2] = test system: ARRS-induced edema; experiment: Inhibitory activity on anti-rat-rabbit serum (ARRS)-induced edema in rats (Experiment D); format: in vivo
# Protocol: Inhibitory activity on anti-rat-rabbit serum (ARRS)-induced edema in rats Similar Experiments was carried out by using ARRS as irritant substance.
# [3] = test system: Dextran-induced edema; experiment: Inhibitory activity on dextran-induced edema in rats (Experiment C); format: in vivo
# Protocol: Inhibitory activity on dextran-induced edema in rats Experiment was carried out in the manner same as those of the preceding Experiments in which dextran was employed as irritant substance.
# [4] = test system: stomachs of the rats; format: in vivo; details: 50 mg/kg oral; score 0 (nothing unusual) to 10 (considerable irritability with bleeding)
# Description: Observation of gastric irritability
# Gastric irritability due to oral administration of the compounds as edema inhibitory agent was studied by macroscopical observation of the dissected stomachs of the rats which had been employed for determination of the edema inhibitions mentioned in the preceding paragraphs. The degrees of the irritability observed were scored in the 0 to 10 ratings depending upon the extent of errosions and bleedings of the stomachs, wherein the rating of 0(zero) means "nothing unusual", the rating of 10 means a state of considerable gastric irritability with bleeding and the remainders mean the intermediate degree of gastric irritability.
# [5] = test system: Kaolin-induced edema; experiment: Inhibitory activity on Kaolin-induced Edema in Rats (Experiment B); format: in vivo
# [6] = test system: Carrageenin-induced edema; experiment: Inhibitory activity on Carrageenin-induced Edema in rats (Experiment A); format: in vivo, rats (male Wistar); details: 3 hours after Carrageenin
# Protocol: Inhibitory activity on Carrageenin-induced Edema in rats
# Carrageenin was used as the agent for inducing edema and 5 male rats of Wistar strain having body weight of about 150 grs. after fasting for 16-17 hours were used as test animals. The inhibitory activity of the test compounds were determined with the paw edema method in accordance with Winter C. A. et al; Proc. Soc. Exp. Biol. Med. 111, 544 (1962).
# The compounds were suspended in an aqueous solution of gum arabic and the same were orally administered to the rats at 1 hour before the injection of Carrageenin.
# The observation was effected by measuring, after 3 hours the administration of the Carrageenin, the enlarged volumes of hind paw of the rats.
structure (smiles),measurement,setting,value
COc1ccc2c(c1)c(CC(=O)O)c(C)n2C(=O)c1ccc(Cl)cc1 [INDOMETHACIN],LD50,[1],37.5 mg/kg
"CC(C(=O)O)c1cccc(Oc2ccccc2)c1 (centres unmarked) [Compound (2), reference compound]",% of Inhibition,"[2]; after 2 hrs, oral 8 mg/kg",7%
same,Edema D. ± S.E.,"[2]; after 2 hrs, oral 8 mg/kg",.634 ± .048
same,% of Inhibition,"[2]; after 2 hrs, oral 40 mg/kg",19%
same,Edema D. ± S.E.,"[2]; after 2 hrs, oral 40 mg/kg",.553 ± .038
same,% of Inhibition,"[2]; after 3 hrs, oral 8 mg/kg",16%
same,Edema D. ± S.E.,"[2]; after 3 hrs, oral 8 mg/kg",.599 ± .040
same,% of Inhibition,"[2]; after 3 hrs, oral 40 mg/kg",26%
same,Edema D. ± S.E.,"[2]; after 3 hrs, oral 40 mg/kg",.531 ± .026
same,% of Inhibition,"[3]; after 2 hrs, oral 8 mg/kg",5%
same,Edema D. ± S.E.,"[3]; after 2 hrs, oral 8 mg/kg",.795 ± .031
same,% of Inhibition,"[3]; after 2 hrs, oral 40 mg/kg",1%
same,Edema D. ± S.E.,"[3]; after 2 hrs, oral 40 mg/kg",.846 ± .013
same,% of Inhibition,"[3]; after 3 hrs, oral 8 mg/kg",1%
same,Edema D. ± S.E.,"[3]; after 3 hrs, oral 8 mg/kg",.749 ± .026
same,% of Inhibition,"[3]; after 3 hrs, oral 40 mg/kg",-3%
same,Edema D. ± S.E.,"[3]; after 3 hrs, oral 40 mg/kg",.773 ± .027
same,Degree of gastric irritability,[4],3
same,Edema D. ± S.E.,"[5]; after 3 hrs, oral 8 mg/kg",.418 ± .040
same,% of Inhibition,"[5]; after 3 hrs, oral 40 mg/kg",49%
same,Edema D. ± S.E.,"[5]; after 3 hrs, oral 40 mg/kg",.212 ± .023
same,% of Inhibition,"[5]; after 5 hrs, oral 8 mg/kg",11%
same,Edema D. ± S.E.,"[5]; after 5 hrs, oral 8 mg/kg",.499 ± .048
same,% of Inhibition,"[5]; after 5 hrs, oral 40 mg/kg",48%
same,Edema D. ± S.E.,"[5]; after 5 hrs, oral 40 mg/kg",.292 ± .031
same,Edema D. ± S.E.,"[5]; after 7 hrs, oral 8 mg/kg",.612 ± .067
same,% of Inhibition,"[5]; after 7 hrs, oral 40 mg/kg",33%
same,Edema D. ± S.E.,"[5]; after 7 hrs, oral 40 mg/kg",.406 ± .057
same,% of Inhibition,[6]; oral 8.0 mg/kg,31%
same,Edema density ± S.E.,[6]; oral 8.0 mg/kg,.373 ± .039
same,% of Inhibition,"[6]; oral 10.0 mg/kg, 10 mg/kg",35%
same,Edema density ± S.E.,"[6]; oral 10.0 mg/kg, 10 mg/kg",.352 ± .063
